Data from PMC5661649, “G-protein-coupled receptors mediate 14-3-3 signal transduction” (Signal Transduction and Targeted Therapy, 2016).
Where two headings read alike, the source gives them in different places.

Tests used:
[1] = biological target: T1, α1AR (β-arrestin signaling) (Homo sapiens, UniProt P35348); assay: α1AR/β-arrestin-2 LinkLight assay; type: cell-based; conditions: α1A-TEV/β-arrestin-pLuc cells, Figure 3f; for EC50: adrenergic agonist panel, read-out: potency (rank order) in β-arrestin signaling
T1 construct: Full-length complementary DNAs of human GPCRs without stop codons were subcloned in frame with the tobacco etch virus (TEV) protease vector; expressed in transfected cells
T1 sequence (P35348 1-466): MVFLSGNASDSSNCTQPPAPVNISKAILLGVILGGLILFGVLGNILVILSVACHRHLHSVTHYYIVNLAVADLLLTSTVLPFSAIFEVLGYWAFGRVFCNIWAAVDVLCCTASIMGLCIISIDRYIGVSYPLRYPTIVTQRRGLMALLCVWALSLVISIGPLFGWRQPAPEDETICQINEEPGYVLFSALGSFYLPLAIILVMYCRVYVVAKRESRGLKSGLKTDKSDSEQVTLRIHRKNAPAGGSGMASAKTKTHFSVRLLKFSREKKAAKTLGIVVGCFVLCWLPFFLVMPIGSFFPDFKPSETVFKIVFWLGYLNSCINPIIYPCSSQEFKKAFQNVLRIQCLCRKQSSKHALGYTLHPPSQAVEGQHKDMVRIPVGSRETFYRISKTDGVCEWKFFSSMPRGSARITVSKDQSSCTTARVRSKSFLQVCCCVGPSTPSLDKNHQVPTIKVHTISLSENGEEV
Method: (§1) Multiple stable clones were selected for evaluation.
(§2) Cells were cultured overnight.
The GPCR/β-arrestin-2 LinkLight cells were seeded in white 384-well plates.

α1AR/14-3-3 interaction = assay: Kinase inhibitor response in α1AR/14-3-3ε LinkLight cells; type: cell-based, human; conditions: preincubation of α1AR/14-3-3 cells; Figure 3c
Raf-1/14-3-3 interaction = assay: Kinase inhibition of FBS-stimulated Raf-1/14-3-3 interaction in U2OS cells; type: cell-based; conditions: 7.5% FBS stimulation, Figure 4d
Method: as §2
The LinkLight cells were cultured in a white 384-well plate overnight. The culture medium was then replaced with serum-free DMEM.

[2] = tested on: Raf-1/14-3-3ε interaction; assay: GPCR agonist-induced Raf-1/14-3-3ε interaction LinkLight assay in U2OS cells; type: cell-based; conditions: U2OS stably co-expressing Raf-1-TEV and 14-3-3ε-pLuc, endogenous GPCRs; Figure 4a
From the text: (§3) Full-length complementary DNAs of human GPCRs without stop codons were subcloned in frame with the tobacco etch virus (TEV) protease vector as previously described.[20],[21] The β-arrestin-2-permuted luciferase (β-arr-2-pLuc) expression plasmid was also previously described.[20],[21] 14-3-3ɛ and 14-3-3ζ full-length complementary DNAs without stop codons were used to replace β-arrestin-2 in the β-arr-2-pLuc for construction of the 14-3-3ɛ-pLuc and 14-3-3ζ-pLuc expression plasmids. […] Multiple stable clones were selected for evaluation.
The LinkLight cells stably expressing both GPCR-TEV and 14-3-3ε-pLuc were seeded into a 384-well white plate (Becton Dickinson, Franklin Lakes, NJ, USA) at 20 000 cells per well with 30 μl of regular medium. Cells were cultured overnight. The following day, the culture medium was replaced with 15 μl of serum-free DMEM, followed by the addition of 5 μl of compounds/drugs. Agonists were added as serial dilutions in serum-free DMEM from 10 mM dimethylsulfoxide stocks. For antagonist inhibition assays, the medium was replaced with 10 μl of serum-free DMEM. […] An equal volume of Bright-Glo (Promega, Madison, WI, USA), One-Glo (Promega), BriteLite (PerkinElmer, Billerica, MA, USA) or NeoLite (PerkinElmer) luciferase detection reagent was added for a 5-min incubation. The luminescence signals were determined using a luminescence plate reader (EnSpire or TopCount). Alternatively, after compound incubation, the culture medium was replaced with 10 μl of luciferase detection reagent, and luminescence signals were recorded.
The Raf-1/14-3-3ε LinkLight cells were seeded in white 384-well plates.

[3] = biological target: T2, muscarinic cholinergic receptor 5 (CHRM5) (Homo sapiens, UniProt P08912); assay: CHRM5/14-3-3ε LinkLight assay, agonist mode; type: cell-based; conditions: stable CHRM5/14-3-3 LinkLight cells; Figure 2e
T2 construct: Full-length complementary DNAs of human GPCRs without stop codons were subcloned in frame with the tobacco etch virus (TEV) protease vector; expressed in transfected cells
T2 sequence (P08912 1-532): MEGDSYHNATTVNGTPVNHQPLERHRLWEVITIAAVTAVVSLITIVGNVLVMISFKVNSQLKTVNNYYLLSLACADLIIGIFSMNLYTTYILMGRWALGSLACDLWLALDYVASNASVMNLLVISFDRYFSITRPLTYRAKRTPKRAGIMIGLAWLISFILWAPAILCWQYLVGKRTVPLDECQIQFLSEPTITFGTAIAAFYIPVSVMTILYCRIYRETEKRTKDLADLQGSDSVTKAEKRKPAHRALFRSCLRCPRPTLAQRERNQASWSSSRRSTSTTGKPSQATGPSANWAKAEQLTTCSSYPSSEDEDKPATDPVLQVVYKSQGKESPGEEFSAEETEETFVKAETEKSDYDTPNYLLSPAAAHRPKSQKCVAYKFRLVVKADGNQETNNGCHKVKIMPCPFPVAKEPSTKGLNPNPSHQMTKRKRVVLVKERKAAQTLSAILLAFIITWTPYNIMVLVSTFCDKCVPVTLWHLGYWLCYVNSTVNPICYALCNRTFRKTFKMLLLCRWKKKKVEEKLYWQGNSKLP
From the text: as §3
(§4) The LinkLight cells stably expressing both GPCR-TEV and 14-3-3ε-pLuc were seeded into a 384-well white plate (Becton Dickinson, Franklin Lakes, NJ, USA) at 20 000 cells per well with 30 μl of regular medium. Cells were cultured overnight. The following day, the culture medium was replaced with 15 μl of serum-free DMEM, followed by the addition of 5 μl of compounds/drugs. Agonists were added as serial dilutions in serum-free DMEM from 10 mM dimethylsulfoxide stocks. For antagonist inhibition assays, the medium was replaced with 10 μl of serum-free DMEM. […] The luminescence signals were determined using a luminescence plate reader (EnSpire or TopCount). Alternatively, after compound incubation, the culture medium was replaced with 10 μl of luciferase detection reagent, and luminescence signals were recorded. […]

[4] = biological target: T3, Alpha adrenergic receptor 1A (α1AR) (Homo sapiens, UniProt P35348); assay: α1AR/14-3-3ε LinkLight assay (agonist-induced GPCR-mediated 14-3-3 signaling); type: cell-based
T3 construct: Full-length complementary DNAs of human GPCRs without stop codons were subcloned in frame with the tobacco etch virus (TEV) protease vector; expressed in transfected cells
T3 sequence (P35348 1-466): T1 sequence (P35348 1-466)
Method: as §1, §2

[5] = biological target: T2, muscarinic cholinergic receptor 5 (CHRM5); assay: CHRM5/14-3-3ε LinkLight assay, antagonist mode; type: cell-based; conditions: preincubation with antagonist, then 3 μM carbachol; Figure 2f
From the text: as §3, §4

[6] = biological target: T4, β3 adrenergic receptor (ADRB3) (Homo sapiens, UniProt P13945); assay: ADRB3/14-3-3 LinkLight assay; type: cell-based; conditions: HEK293 stably expressing ADRB3-TEV and 14-3-3-pLuc; Figure 3d
T4 construct: Full-length complementary DNAs of human GPCRs without stop codons were subcloned in frame with the tobacco etch virus (TEV) protease vector; expressed in transfected cells
T4 sequence (P13945 whole entry): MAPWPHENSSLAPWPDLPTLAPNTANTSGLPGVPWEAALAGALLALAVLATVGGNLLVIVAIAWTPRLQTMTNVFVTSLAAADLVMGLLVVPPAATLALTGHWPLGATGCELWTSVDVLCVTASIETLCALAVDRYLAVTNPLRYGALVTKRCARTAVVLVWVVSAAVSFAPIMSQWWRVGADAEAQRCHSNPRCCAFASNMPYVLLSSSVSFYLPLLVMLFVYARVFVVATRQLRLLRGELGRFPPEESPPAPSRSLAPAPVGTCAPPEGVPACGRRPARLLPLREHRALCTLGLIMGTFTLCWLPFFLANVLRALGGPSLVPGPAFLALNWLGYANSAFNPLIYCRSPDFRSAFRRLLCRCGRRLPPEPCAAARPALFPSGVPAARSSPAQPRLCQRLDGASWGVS
Method: as §1, §2

[7] = α1A-TEV/14-3-3ε-pLuc cells, adrenergic agonist panel, Figure 3e, read-out: potency (rank order) in the 14-3-3 signaling assay

## C[C@H](Cc1ccc(OCC(=O)O)cc1)NC[C@H](O)c1cccc(Cl)c1 [BRL37344]
[1]
  agonist behaviour in β-arrestin signaling versus 14-3-3 signaling: much weaker agonists of β-arrestin signaling than of 14-3-3 signaling

## Cn1c(CNc2cccc(C(=O)NCc3ccccc3C(F)(F)F)c2)nnc1-c1ccncc1 [CMPD101]
α1AR/14-3-3 interaction
  inhibition of cirazoline-stimulated α1AR/14-3-3 signals: did not inhibit

## O=C1Nc2ccc(I)cc2/C1=C/c1cc(Br)c(O)c(Br)c1 [GW5074]
Raf-1/14-3-3 interaction
  inhibition of FBS-stimulated Raf-1/14-3-3 interaction signals: very weak inhibition activity

## O=S(=O)(NCCNC/C=C/c1ccc(Br)cc1)c1cccc2cnccc12 [H-89]
α1AR/14-3-3 interaction
  inhibition of cirazoline-stimulated α1AR/14-3-3 signals: did not inhibit

## CCNC(=O)[C@H]1O[C@@H](n2cnc3c(N)ncnc32)[C@H](O)[C@@H]1O [NECA, 5'-N-ethylcarboxamidoadenosine]
[2]
  Raf-1/14-3-3 interaction signals on stimulation with GPCR agonist: concentration-dependent Raf-1/14-3-3 interaction signals

## O=C1CCCN1CC#CCN1CCCC1 [Oxotremorine, oxotremorine]
[3]
  agonist behaviour for 14-3-3 signaling (full/partial): full agonists

## Brc1c(NC2=NCCN2)ccc2nccnc12 [UK14304]
[4]; [7]
  EC50: 55.2 nM
[1]
  EC50: 780 nM

## CNC[C@H](O)c1ccc(O)c(O)c1 [adrenaline]
[2]
  Raf-1/14-3-3 interaction signals on stimulation with GPCR agonist: concentration-dependent Raf-1/14-3-3 interaction signals

## CN1[C@@H]2CC[C@H]1C[C@@H](OC(=O)C(CO)c1ccccc1)C2 (stereo partly shown) [atropine]
[5]
  inhibition of agonist-induced CHRM5-mediated 14-3-3 signals: antagonist concentration-dependent inhibition signals

## C[N+](C)(C)CCOC(N)=O [carbachol]
[3]
  agonist behaviour for 14-3-3 signaling (full/partial): full agonists

## c1ccc(C2CC2)c(OCC2=NCCN2)c1 [cirazoline]
[4]; HEK293 stably co-expressing α1A-TEV/14-3-3ε-pLuc, Figure 2a, read-out: EC50, α1AR-mediated 14-3-3 signaling
  EC50: 9.5 nM
[4]; [7]
  EC50: 1.72 nM
[6]
  ADRB3/14-3-3 interaction signals: very weak signals even at 10 μM
[1]
  EC50: 18.4 nM

## NCCc1ccc(O)c(O)c1 [dopamine]
[2]
  Raf-1/14-3-3 interaction signals on stimulation with GPCR agonist: concentration-dependent Raf-1/14-3-3 interaction signals

## N=C(N)NC(=O)Cc1c(Cl)cccc1Cl [guanfacine]
[4]; [7]
  EC50: 12.4 nM
[6]
  ADRB3/14-3-3 interaction signals: very weak signals even at 10 μM
[1]
  EC50: 1610 nM

## CC(C)NCC(O)c1ccc(O)c(O)c1 (stereo not shown) [isoproterenol]
[6]
  ADRB3/14-3-3 interaction signals: promoted ADRB3/14-3-3 interaction signals in a concentration-dependent manner
[1]
  agonist behaviour in β-arrestin signaling versus 14-3-3 signaling: much weaker agonists of β-arrestin signaling than of 14-3-3 signaling

## COc1ccc(OC)c(C(O)C(C)N)c1 (stereo not shown) [methoxamine]
[4]; [7]
  EC50: 11.1 nM
[1]
  EC50: 318 nM

## CN1[C@@H]2C[C@@H](OC(=O)[C@H](CO)c3ccccc3)C[C@H]1[C@@H]1O[C@@H]12 [scopolamine]
[5]
  inhibition of agonist-induced CHRM5-mediated 14-3-3 signals: antagonist concentration-dependent inhibition signals

## CCCS(=O)(=O)Nc1ccc(F)c(C(=O)c2c[nH]c3ncc(-c4ccc(Cl)cc4)cc23)c1F [vemurafenib]
Raf-1/14-3-3 interaction
  inhibition of FBS-stimulated Raf-1/14-3-3 interaction signals: partial inhibition
